Tests used:
[1] = tested on: SREBP1, SPERBP2, FAS, and ACACA; assay: Comparison of retinoic acid signal transduction pathway modifiers: sebum-related gene expression in sebaceous gland cells; assay type: cell-based, human; details: for effect on sebum-related gene expression (SREBP1, SPERBP2, FAS, ACACA): sebaceous gland cells treated with 1 μM and 10 μM of each material, FIG. 5
Description: Primary sebocyte and human sebocyte complete medium were purchased from Celprogen and used.
(§1) After that, 1 ml of Trizol (Invitrogen) was added to the cells, and RNA was isolated from the cells according to the RNA isolation method (Invitrogen). The RNA was quantified using a UV detector (HEWLETT PACKARD) at 260 nm and subject to RT-PCR (reverse transcription-polymerase chain reaction).
(§2) Taqman probes were used for genetic analysis of SREBP1(Hs02561944_s1), SREBP2(Hs01081781_m1), fatty acid synthase(FAS: Hs01005622_m1), Acetyl-CoA Carboxylase(ACACA: Hs01046047_m1) for each sample, and normalization was performed with respect to the complementary gene RPL13A (Hs04194366_g1), and the result is shown in FIG. 4.

sebaceous gland cells = assay: Cytotoxicity in sebaceous gland cells during the comparison of Example 5; assay type: cell-based, human; details: 10 μM
[2] = tested on: retinoic acid receptor (RAR); details: from paper of the Society of Cosmetic Scientists of Korea (2003); cited from earlier work
[3] = tested on: fatty acid synthase (FAS); assay: Genetic analysis of cholesterol/fatty acid transcription factors in sebaceous gland cells: FAS; assay type: cell-based, human; details: primary sebocytes, cultured 2 days, RT-PCR, FIG. 4
Description: (§3) Primary sebocyte and human sebocyte complete medium were purchased from Celprogen and used. The sebaceous gland cells were dispensed in a 60 mm cell culture dish at a density of 1.25×10^4 cells/dish, and then cultured in a CO2 incubator under the condition of 37° C. and 5% CO2 at about 80% confluency. Thereafter, 0 μM, 1 μM, and 10 μM of the compound of Chemical Formula 1 (Seletinoid G) were treated with the cells, respectively, and the cells were cultured for 2 days, and then changes in transcription factors related to sebum biosynthesis were confirmed.
as §1, with “The cells were treated with the material of Example 3, and then, cultured for 2 days, and then, the cell growth medium was removed. After” for “After”
as §2

[4] = tested on: Acetyl-CoA Carboxylase (ACACA); assay: Genetic analysis of cholesterol/fatty acid transcription factors in sebaceous gland cells: ACACA; assay type: cell-based, human; details: primary sebocytes, cultured 2 days, RT-PCR, FIG. 4
Description: as §3
as §1, with “The cells were treated with the material of Example 3, and then, cultured for 2 days, and then, the cell growth medium was removed. After” for “After”
as §2

SREBP2 = assay: Genetic analysis of cholesterol/fatty acid transcription factors in sebaceous gland cells: SREBP2; assay type: cell-based, human; details: primary sebocytes, cultured 2 days, RT-PCR, FIG. 4
Description: as §3
as §1, with “The cells were treated with the material of Example 3, and then, cultured for 2 days, and then, the cell growth medium was removed. After” for “After”
as §2

SREBP1 = assay: Genetic analysis of cholesterol/fatty acid transcription factors in sebaceous gland cells: SREBP1; assay type: cell-based, human; details: primary sebocytes, cultured 2 days, RT-PCR, FIG. 4
Description: as §3
as §1, with “The cells were treated with the material of Example 3, and then, cultured for 2 days, and then, the cell growth medium was removed. After” for “After”
as §2

## CC1=C(/C=C/C(C)=C/C=C/C(C)=C/C(=O)Nc2ccc(O)cc2)C(C)(C)CCC1 [fenretinide, reference compound]
[1]
  effect on sebum-related gene expression (SREBP1, SPERBP2, FAS, ACACA): effect of suppressing sebum-related gene expression

## CC1=C(/C=C/C(C)=C/C=C/C(C)=C/C(=O)O)C(C)(C)CCC1 [retinoic acid, reference compound]
Sebaceous gland cells
  cytotoxicity: some cytotoxicity

## Clc1cccc(C(c2ccc3[nH]cnc3c2)n2ccnc2)c1 (stereo not drawn) [liarozole, reference compound]
[1]
  effect on sebum-related gene expression (SREBP1, SPERBP2, FAS, ACACA): did not show a significant difference

## O=C(/C=C/c1ccc2c(c1)OCO2)OCc1cc(=O)c(O)co1 [Seletinoid G, (5-hydroxy-4-oxopyran-2-yl)methyl (E)-3-(1,3-benzodioxol-5-yl)prop-2-enoate]
[2]
  binding to retinoic acid receptor (specificity): specifically binds to RARγ
[3]; 1 μM
  expression level of FAS reduced by: ~30%
[3]; 10 μM
  expression level of FAS reduced by: ~45%
[4]; 1 μM
  expression level of ACACA reduced by: ~30%
[4]; 10 μM
  expression level of ACACA reduced by: about 60%
SREBP2; 1 μM
  expression level of SPERBP2 reduced by: about 40%
SREBP2; 10 μM
  expression level of SPERBP2 reduced by: ~55%
SREBP1; 1 μM
  expression level of SREBP1 reduced by: about 40%
SREBP1; 10 μM
  expression level of SREBP1 reduced by: about 60%
Sebaceous gland cells
  cytotoxicity: without causing cytotoxicity
[1]
  effect on sebum-related gene expression (SREBP1, SPERBP2, FAS, ACACA): effect of suppressing sebum-related gene expression
[1]; sebaceous gland cells, 10 μM
  reduction of the expression level of the transcription factors (SREBP1a, SPERBP2, FAS, ACACA): more than 60%
